Laboratory results: patent publication US10654855B2 (priority 2007, dated 2020)

Target: AKT1 (PKBα) (Homo sapiens (Human), UniProt P31749)
Details: read-out: In vitro PKBα Mean IC50; AKT1/PKBα active enzyme; values marked * tested once only

Sequence of AKT1 (PKBα) (P31749 whole entry): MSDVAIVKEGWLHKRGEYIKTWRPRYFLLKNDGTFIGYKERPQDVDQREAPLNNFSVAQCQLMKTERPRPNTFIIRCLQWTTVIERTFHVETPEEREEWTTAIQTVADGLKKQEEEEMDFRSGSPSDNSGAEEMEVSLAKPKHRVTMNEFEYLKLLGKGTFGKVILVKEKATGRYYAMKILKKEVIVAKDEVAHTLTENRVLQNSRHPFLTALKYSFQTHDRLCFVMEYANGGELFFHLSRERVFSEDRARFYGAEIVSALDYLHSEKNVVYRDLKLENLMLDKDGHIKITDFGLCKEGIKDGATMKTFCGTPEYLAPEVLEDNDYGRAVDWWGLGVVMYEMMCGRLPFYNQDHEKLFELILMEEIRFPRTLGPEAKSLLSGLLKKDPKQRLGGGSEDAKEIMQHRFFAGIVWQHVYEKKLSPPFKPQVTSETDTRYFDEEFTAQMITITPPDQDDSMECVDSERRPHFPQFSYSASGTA

IC50: 50 nM
Structure (SMILES): C[C@H](NC(=O)C1(N)CCN(c2ncnc3[nH]ccc23)CC1)c1ccc(C#N)cc1 [Example 39, 4-amino-N-[(1S)-1-(4-cyanophenyl)ethyl]-1-(7H-pyrrolo[2,3-d]pyrimidin-4-yl)piperidine-4-carboxamide]
